Reference: paper PMC11077868, “Rutinosides-derived from Sarocladium strictum 6-O-α-rhamnosyl-β-glucosidase show enhanced anti-tumoral activity in pancreatic cancer cells” (Microbial Cell Factories, 2024)

Key:
[1] = test system: T1, 6-O-α-rhamnosyl-β-glucosidase (αRβG); experiment: hydrolysis; product release, Michaelis-Menten fit; format: biochemical, Sarocladium strictum; conditions: 50 mM sodium phosphate pH 6.0, 60 °C, 1 h
T1 construct: native, purified from culture supernatant of S. strictum; 99 kDa by SDS-PAGE; tryptic peptide TIHETYLAPWYDGVK matched to a 755-residue putative glycoside hydrolase (21-residue signal peptide) of another strain, A. strictum DS1bioAY4a, JGI ID 1029425

[2] = test system: T1, 6-O-α-rhamnosyl-β-glucosidase (αRβG); experiment: hydrolysis; reducing sugars by […],4-dinitrosalicylic acid, Michaelis-Menten fit; format: biochemical, Sarocladium strictum; conditions: 50 mM sodium phosphate pH 6.0, 60 °C, 1 h

Km [1] [µM] | Km [2] [µM] | Structure (SMILES)
473 ± 4 |  | C[C@@H]1O[C@@H](OC[C@H]2O[C@@H](Oc3c(-c4ccc(O)c(O)c4)oc4cc(O)cc(O)c4c3=O)[C@H](O)[C@@H](O)[C@@H]2O)[C@H](O)[C@H](O)[C@H]1O [rutin]
 | 700 ± 120 | COc1ccc([C@@H]2CC(=O)c3c(O)cc(O[C@@H]4O[C@H](CO[C@@H]5O[C@@H](C)[C@H](O)[C@@H](O)[C@H]5O)[C@@H](O)[C@H](O)[C@H]4O)cc3O2)cc1O [hesperidin]
